According to article PMC4744035, “In Vivo, In Vitro, and In Silico Characterization of Peptoids as Antimicrobial Agents” (PLoS ONE, 2016):
Ends that are not written are not given here.

Tests used:
[1] = system: NIH 3T3 cells; assay: Metabolic activity, MTS assay; assay type: cell-based, mouse; conditions: NIH 3T3 cells, MTS assay, 3 hours
In short: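 Mouse NIH 3T3 fibroblast monolayers, about 5000 cells per well, washed and exposed to serially diluted peptoids in Hank's balanced salt solution. Metabolic activity read by MTS; average of six replicate trials.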

[2] = system: P. aeruginosa 213 (MDR); assay: microbe, parasite or virus in culture
In short: (§1)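 Clinical and lab strains were tested by modified broth microdilution in Mueller Hinton medium at 2–7 x 10^5 CFU/mL.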

[3] = system: E. faecalis F43559 (VRE); assay: microbe, parasite or virus in culture; conditions: E. faecalis F43559 (VRE)
In short: as §1

[4] = system: P. aeruginosa 198 (MDR); assay: microbe, parasite or virus in culture; conditions: P. aeruginosa 198 (MDR)
In short: as §1

[5] = system: E. cloacae 218R Class C β-lactamase; assay: microbe, parasite or virus in culture
In short: as §1

[6] = system: P. aeruginosa 9 (MDR); assay: microbe, parasite or virus in culture; conditions: P. aeruginosa 9 (MDR)
In short: as §1

[7] = system: E. faecalis W61950 (VRE); assay: microbe, parasite or virus in culture; conditions: E. faecalis W61950 (VRE)
In short: as §1

[8] = system: E. faecalis ATCC29212; assay: microbe, parasite or virus in culture; conditions: E. faecalis ATCC29212
In short: as §1

[9] = system: S. aureus C623 (MRSA); assay: microbe, parasite or virus in culture
In short: as §1

[10] = system: K. pneumonia 63575 (ESBL); assay: microbe, parasite or virus in culture; conditions: K. pneumonia 63575 (ESBL)
In short: as §1

[11] = system: E. faecium mic80 (VRE); assay: microbe, parasite or virus in culture
In short: as §1

[12] = system: S. aureus ATCC25923; assay: microbe, parasite or virus in culture
In short: as §1

[13] = system: P. aeruginosa H103 (wild type); assay: microbe, parasite or virus in culture
In short: as §1

[14] = system: P. aeruginosa LES400 (MDR); assay: microbe, parasite or virus in culture; conditions: P. aeruginosa LES400 (MDR)
In short: as §1

[15] = system: P. aeruginosa H1027 (MDR); assay: microbe, parasite or virus in culture
In short: as §1

[16] = system: E. coli 64771 (ESBL); assay: microbe, parasite or virus in culture
In short: as §1

[17] = system: P. aeruginosa H1030 (MDR); assay: microbe, parasite or virus in culture; conditions: P. aeruginosa H1030 (MDR)
In short: as §1

[18] = system: K. pneumonia 61962 (ESBL); assay: microbe, parasite or virus in culture; conditions: K. pneumonia 61962 (ESBL)
In short: as §1

[19] = system: P. maltophilia ATCC13637; assay: microbe, parasite or virus in culture
In short: as §1

[20] = system: E. faecium T62764 (VRE); assay: microbe, parasite or virus in culture; conditions: E. faecium T62764 (VRE)
In short: as §1

[21] = system: E. coli 63103 (ESBL); assay: microbe, parasite or virus in culture
In short: as §1

[22] = system: erythrocytes; assay: Hemolytic activity (HD10/HD50); assay type: cell-based
From the text: Table 1 Characteristics of antimicrobial peptoids, screened for activity against B. subtilis and E. coli bacterial strains. | column: HD10 / HD50

[23] = system: B. subtilis ATCC 6633; assay type: cell-based
In short: (§2)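 MICs determined by 2:1 serial broth microdilution in cation-adjusted Mueller-Hinton broth per CLSI M7-A6, using inoculum at 1 x 10^6 CFU/mL mixed 1:1 with peptoid solution. Three independent replicates, each with two parallel trials.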

[24] = system: E. coli ATCC 35218; assay type: cell-based
In short: as §2

[25] = system: 20 bacterial strains (13 Gram-negative, 7 Gram-positive); conditions: out of the 20 pathogens tested
Description: The MICs of test agents were measured using a modified broth micro-dilution method in Difco Mueller Hinton medium, on a panel of bacterial pathogens that were both susceptible and resistant to common antibiotics (S1 File). Briefly, serial dilutions were performed in 0.01% acetic acid containing 0.2% bovine serum albumin at 10-fold the desired final concentration. Ten μL of the 10-fold concentrated test reagents were added to each well of a 96-well polypropylene microtitre plate containing 90 μL of Mueller Hinton media per well. Bacteria were added to the plate from an overnight culture at a final concentration of 2–7 x 10^5 CFU/mL and incubated overnight at 37°C. The MIC is defined as the concentration at which no growth was observed.
Screening of peptoid antimicrobial activity against a panel of multidrug resistant superbugs was done according to the protocol described in the manuscript. The bacterial strains used in this panel included; P. aeruginosa PAO1 strain H103 [1], P. maltophilia ATCC#13637, S. aureus ATCC#25923 [1], E. faecalis ATCC#29212 [2], and E. cloacae 218R, constitutively expressing Class C chromosomal β-lactamase, were from the Hancock lab strains collection. An MRSA clinical isolate was kindly provided by Anthony Chow (Vancouver General Hospital, Vancouver, Canada). Two Klebsiella pneumoniae and two E. coli clinical isolates expressing extended spectrum β-lactamases (ESBL) were kindly provided by George Zhanel (Health Sciences Centre, Winnipeg, Canada). Vancomycin-resistant clinical isolates of Enterococcus faecalis and E. faecium were obtained from Ana M. Paccagnella (BC Centre for Disease Control, Vancouver, Canada). Three clinical isolates (#9, #198 and #213) of multi-drug resistant P. aeruginosa, were kindly provided by Carlos Kiffer (University of São Paulo, Brazil). […] Three P. aeruginosa clinical isolates of the Liverpool epidemic strain (LES) (H1027, H1030 and LES400) were all kindly provided by Craig Winstanley (University of Liverpool, UK). […] All tested bacterial strains were categorized as biohazard level 2 pathogens.

[26] = system: LPS (P. aeruginosa); assay: Dansyl polymyxin B (DPX) displacement assay, LPS binding; conditions: DPX bound to P. aeruginosa LPS; for IC50: read-out: I50 (concentration that displaces 50% of LPS-bound DPX)
Description: The Dansyl polymyxin B (DPX) displacement assay was carried out as described earlier. In brief, the fluorescence of DPX (Invitrogen) bound to LPS (P. aeruginosa) was measured by using a Luminescence spectrometer LS 50B (Perkin Elmer) with excitation and emission-wavelengths of 340 nm and 485 nm, respectively. A predetermined amount of DPX, resulting in 90% saturation of LPS, was added to 1 mL of 3 μg/mL of purified LPS. Small aliquots (5 μL of 1 μg/mL) of test compounds were added under constant stirring in the cuvette, and the displacement of DPX was measured for 30–60 seconds as a decrease in fluorescence. The process was repeated until maximum displacement was reached.
The ability of other cationic molecules to displace DPX molecules bound to LPS (monitored by reduction in fluorescence) assesses their relative ability to bind to LPS [33, 34]. While the highly cationic MSI-78 (+10 charge) displaced 100% of bound DPX (equivalent to that of polymyxin B), peptoid 1 and MX-226 displaced 71% and 73% of bound DPX, respectively. […] A second parameter characterizing the LPS/polycation interaction is the I50, which is defined as the concentration of a polycation that displaces 50% of LPS-bound DPX. The I50 is inversely related to the relative affinity of each molecule for binding sites on LPS.

[27] = system: MDR P. aeruginosa (polymyxin B resistant isolate); parameters: method as in PMID 19635950; conditions: MDR P. aeruginosa isolate most resistant to peptoid 1; cited from earlier work

Substance: H-(NLys-Npm-Npm)4-NH2 [Peptoid 1ach]
- ID50 (inhibitory dose, metabolic activity) [1]: 16 µM
- MIC ([2]; P. aeruginosa 213 (MDR)): 8 µg/mL
- MIC [3]: 32 µg/mL
- MIC [4]: 8 µg/mL
- MIC ([5]; E. cloacae 218R Class C β-lactamase): 16 µg/mL
- MIC [6]: 64 µg/mL
- MIC [7]: 32 µg/mL
- MIC [8]: 8 µg/mL
- MIC ([9]; S. aureus C623 (MRSA)): 4 µg/mL
- MIC [10]: 64 µg/mL
- MIC ([11]; E. faecium mic80 (VRE)): 4 µg/mL
- MIC ([12]; S. aureus ATCC25923): 4 µg/mL
- MIC ([13]; P. aeruginosa H103 (wild type)): 4 µg/mL
- MIC [14]: 4 µg/mL
- MIC ([15]; P. aeruginosa H1027 (MDR)): 2 µg/mL
- MIC ([16]; E. coli 64771 (ESBL)): 8 µg/mL
- MIC [17]: 64 µg/mL
- MIC [18]: 128 µg/mL
- MIC ([19]; P. maltophilia ATCC13637): 4 µg/mL
- MIC [20]: 2 µg/mL
- MIC ([21]; E. coli 63103 (ESBL)): 16 µg/mL
- HD10 (hemolytic activity) [22]: 183
- HD50 (hemolytic activity) [22]: > 200
- MIC B. subtilis [23]: 1.6 µM
- MIC E. coli [24]: 12.5 µM

Substance: ILRWPWWPWRRK-NH2 (C-terminus assumed) [MX-226, Omiganan, reference compound]
- MIC ([2]; 213 (MDR)): 64 µg/mL
- MIC ([5]; 218R Class C β-lactamase): 16 µg/mL
- MIC ([9]; C623): 32 µg/mL
- MIC ([11]; mic80 (VRE)): 64 µg/mL
- MIC ([12]; ATCC25923): 16 µg/mL
- MIC ([13]; H103 (wild type)): 32 µg/mL
- MIC ([15]; H1027 (MDR)): 64 µg/mL
- MIC ([16]; 64771 (ESBL)): 64 µg/mL
- MIC ([19]; ATCC13637): 32 µg/mL
- MIC ([21]; 63103 (ESBL)): 64 µg/mL
- number of pathogens with MIC ≤ 8 μg/mL [25]: none
- bound DPX displaced (maximum displacement) [26]: 73%
- IC50 [26]: 5 µM

Substance: polymyxin B
- MIC [27]: 64 µg/mL
- bound DPX displaced (maximum displacement) [26]: 100%
- IC50 [26]: 3.2 µM
